# Like-named read-outs stand apart in the source and are kept apart here.
# Key:
# H1N1 virus = assay: microbe, parasite or virus in culture; assay type: cell-based, influenza A virus; details: for IC50: Influenza A virus, H1N1, MDCK, 72 h
# A549 cells [1] = assay: MTT cytotoxicity assay (TC50)
# [2] = tested on: cytokines in lung homogenates; assay: ELISA of cytokines in lung tissue homogenates of H1N1-infected mice; assay type: in vivo, BALB/c mice; details: for expression level of IL-10 in lung homogenates / expression level of INF-γ in lung homogenates: C1 10 mg/kg, Os. 20 mg/kg, vs H1N1 virus group; for IL-1β level in lung homogenates / IL-6 level in lung homogenates / MCP-1 production in lung homogenates / TNF-α level in lung homogenates: C1 2.5, 5, 10 mg/kg, oseltamivir phosphate 20 mg/kg, vs model group, dose-dependent, p < 0.001, day 4
# Method: (§1) Five-week-old healthy male BALB/c mice (n = 6 per group) were maintained in pathogen-free individual cages with free access to drinking water and sterilized food, as described previously. The mice were randomly allocated into the following groups: normal control group, H1N1 model group, C1 (2.5, 5, 10 mg/kg) treatment group, and positive control group treated with oseltamivir (20 mg/kg, positive control). Except for normal controls, the rest of mice were intranasally infected with 30 μL of diluted H1N1virus (3LD50) after light anesthesia. Negative control mice (normal group) were challenged by inhaling equal volumes (30 μL) of virus diluent as the other mice. Then, 2 h later, C1 (2.5, 5, 10 mg/kg) and Oseltamivir (20 mg/kg) dissolved in 5% CMC-Na solution were given to mice (0.1 mL/10 g) once per day (i.g.) at day 0 (D0), day 1 (D1), day 2 (D2) and day 3 (D3) after infection with H1N1 virus. At the same time, normal and model groups were administered equivalent amounts of 0.5% CMC-Na in the same way. Post-infection on day 4, the mice were sacrificed to collect blood plasma, lung and liver, which were weighed.
# Pulmonary tissue homogenates were collected from mice lungs by centrifugation at 4500 rpm for 20 min. BCA assay was used to quantify the total protein in the supernatant of lung homogenates. Cytokine levels of IL-1β, IL-6, TNF-α, IL-10, MCP-1, INF-γ and INF-α were determined, as instructed by the manufacturer.
# Figure 5 C1-alleviated lung injury in mice after 4 days of administration (n = 6, means ± S.D.); the experiment design is the same as Figure 3. Concentration of chemokines/cytokines/interferon was measured on day 4 post-infection by ELISA in lung homogenates (n = 6). (A) IL-6; (B) IL-1β; (C) TNF-α; (D) MCP-1; (E) IL-10; (F) IFN-γ.
# [3] = tested on: influenza virus H1N1 (A/FM/1/47); details: for lung index: day 4, p < 0.001 vs model
# [4] = tested on: ionized calcium binding adaptor molecule-1 (Iba-1); set-up: species or system BALB/c mice; details: mouse, in vivo
# H1N1 influenza virus = assay: H1N1-induced ALI in mice treated with EA extract: lung index, liver index, body weight, H&E; assay type: in vivo
# A549 cells [5] = details: human
# hepatitis C virus = tested on: hepatitis C virus; set-up: method as in earlier work; details: cited from earlier work
# neuraminidase (NA) = assay: Neuraminidase activity assay in lung homogenates of H1N1-infected mice; assay type: in vivo, BALB/c mice
# Method: as §1, with “At the same time, normal and model groups were administered equivalent amounts of 0.5% CMC-Na in the same way. Post-infection on day 4, the mice were sacrificed to collect blood plasma, lung and liver, which were weighed.” left out
# Viral titers were measured using neuraminidase (NA) assay kit designed to detect antiviral effects. […] A reaction mixture consisted of 10 μL lung homogenates, 70 μL detection buffer, 10 μL Mill-Q water and 10 μL NA fluorescence substrate in a 96-well plate. […] The fluorescence of the mixture was quantified at 322 nm of excitation wavelength and 450 nm of emission wavelength with a muti-mode microplate read (Waltham, VT, USA). […]
# Solubility observation = assay type: physicochemical; details: sterile water
# [6] = tested on: influenza A virus nucleoprotein (NP); assay: Immunohistochemistry of viral nucleoprotein in lung tissue of H1N1-infected mice; assay type: in vivo, BALB/c mice; details: C1-treated mice vs indirubin-treated mice and model group; day 4
# Method: Five-week-old healthy male BALB/c mice (n = 6 per group) were maintained in pathogen-free individual cages with free access to drinking water and sterilized food, as described previously. The mice were randomly allocated into the following groups: normal control group, H1N1 model group, C1 (2.5, 5, 10 mg/kg) treatment group, and positive control group treated with oseltamivir (20 mg/kg, positive control). Except for normal controls, the rest of mice were intranasally infected with 30 μL of diluted H1N1virus (3LD50) after light anesthesia. Negative control mice (normal group) were challenged by inhaling equal volumes (30 μL) of virus diluent as the other mice. […]
# Influenza virus load, expression of NPs and ionized calcium binding adaptor molecule-1(Iba-1) were determined using IHC. […]
# Figure 4 Suppression of H1N1 viral replication in vivo by C1, the experimental protocol is the same as Figure 3. (A) The NA activity in lung homogenates by fluorescence effect; (B) The expression level of INF-α in lung homogenates by ELISA; (C) The expression of NP in lung tissue, the representative IHC pathological images of the lung on day 4 post-infection, the red arrow indicates viral N protein-positive signal. […]
smiles,measurement,setting,value
"O=C1c2cc(O)cc(O)c2CN1c1ccc(O)cc1 [Compound C4, clitocybin A]",antiviral activity,H1N1 virus,did not exert any antiviral activity
same,TC50,A549 cells [1],167.7 µg/mL
"Cc1nc2ccccc2c(=O)n1-c1ccccc1O [Compound C3, 3-(2′-Hydroxyphenyl)-2-methyl-4(3H)-quinazolinone]",IC50,H1N1 virus,100 µg/mL
same,TC50,A549 cells [1],106.8 µg/mL
"CCOC(=O)C1=C[C@@H](OC(CC)CC)[C@H](NC(C)=O)[C@@H](N)C1 [Os., Oseltamivir phosphate, reference compound]",expression level of IL-10 in lung homogenates,[2],higher
same,expression level of INF-γ in lung homogenates,[2],higher
same,IL-1β level in lung homogenates,[2],significantly reduced
same,IL-6 level in lung homogenates,[2],significantly reduced
same,MCP-1 production in lung homogenates,[2],significantly reduced
same,TNF-α level in lung homogenates,[2],significantly reduced
same,weight rate of mice raised,"[3]; Os. 20 mg/kg, days 0-4",21.6%
same,lung histological damage (H&E),"[3]; mouse, in vivo",significantly less
"O=C1Nc2ccccc2/C1=C1/Nc2ccccc2C1=O [indirubin, reference compound]",Iba-1 positive signals in lung tissue (macrophage recruitment),[4],fewer positive signals
same,lung edema measured as lung index,"[3]; mouse, in vivo",minimal effect
same,lung histological damage (H&E),"[3]; mouse, in vivo",no evident histological alteration
"NC(=O)c1ncn([C@@H]2O[C@H](CO)[C@@H](O)[C@H]2O)n1 [Ribavrin, Ribavirin]",IC50,H1N1 virus,37.2 µg/mL
same,body weight over 5 days,"H1N1 influenza virus; EA extract 10 mg/kg, Ribavirbin 100 mg/kg, day 1 to day 5",gained weight
same,lung tissue histological changes (H&E),H1N1 influenza virus; EA extract and Ribavirin groups compared to the infected group,relieved tissue consolidation
same,lung index,"H1N1 influenza virus; Ribavirbin 100 mg/kg i.g. once daily 4 days, model 11.58 ± 0.39, p < 0.001",7.32 ± 0.39 mg/g
same,liver index,"H1N1 influenza virus; Ribavirbin 100 mg/kg, model 50.73 ± 0.58, normal 62.79 ± 1.24",59.60 ± 1.68 mg/g
"CC1(C)C[C@H](O)C[C@@]2(C)OC(=O)C=C12 [Compound C2, loliolide]",antiviral activity,H1N1 virus,did not exert any antiviral activity
same,TC50,A549 cells [5],26.7 µg/mL
same,inhibition of the hepatitis C virus,hepatitis C virus,potent inhibitor
"Cc1nc2ccccc2c(=O)[nH]1 [Compound C1, 2-Methylquinazolin-4(3H)-one]",IC50,H1N1 virus,23.8 µg/mL
same,TC50,A549 cells [1],79.7 µg/mL
same,Iba-1 positive signals in lung tissue (macrophage recruitment),[4],fewer positive signals
same,NA activity in lung homogenates,"neuraminidase (NA); C1 2.5 mg/kg, vs model control",no differences
same,NA activity in lung homogenates,"neuraminidase (NA); C1 5, 10 mg/kg, vs model group, p < 0.05",significantly lower
same,solubility,Solubility observation,soluble
same,expression level of IL-10 in lung homogenates,[2],higher
same,expression level of INF-γ in lung homogenates,[2],higher
same,IL-1β level in lung homogenates,[2],significantly reduced
same,IL-6 level in lung homogenates,[2],significantly reduced
same,MCP-1 production in lung homogenates,[2],significantly reduced
same,TNF-α level in lung homogenates,[2],significantly reduced
same,production of IFN-α in lung homogenates,"[2]; after treatment with C1, ELISA",remarkably decreased
same,viral N protein-positive signals in lung tissue,[6],fewer positive signals
same,lung index,"[3]; C1 2.5 mg/kg i.g. once daily D0-D3, model 10.27 ± 0.50, normal 6.40 ± 0.14",8.85 ± 0.47 mg/g
same,weight rate of mice raised,"[3]; C1 2.5 mg/kg, days 0-4, model decreased 4.5%",2%
same,lung index,"[3]; C1 5 mg/kg i.g. once daily D0-D3, model 10.27 ± 0.50",8.60 ± 0.29 mg/g
same,weight rate of mice decreased,"[3]; C1 5 mg/kg, days 0-4, model decreased 4.5%",2%
same,lung index,"[3]; C1 10 mg/kg i.g. once daily D0-D3, model 10.27 ± 0.50",8.36 ± 0.28 mg/g
same,weight rate of mice raised,"[3]; C1 10 mg/kg, days 0-4",0.2%
same,lung histological damage (H&E),"[3]; mouse, in vivo",significantly less
same,toxicity on liver and spleen,"[3]; mouse, in vivo, po",no toxicity
